# From patent US20060216774A1 (priority 2003, published 2006)
# What was measured:
# icl2 (isocitrate lyase) = icl2 (isocitrate lyase) (Mycobacterium tuberculosis, UniProt Q8VJU4); settings: read-out: Km for icl2; substrate isocitrate; cited from earlier work
# isocitrate lyase (icl) = isocitrate lyase (icl) (Escherichia coli, UniProt P0A9G6); settings: read-out: Km of icl; E. coli, substrate isocitrate; cited from earlier work
# icl1 (isocitrate lyase) = icl1 (isocitrate lyase) (Mycobacterium tuberculosis, UniProt P9WKK7); settings: read-out: Km for icl1; substrate isocitrate; cited from earlier work
# Sequence of icl1 (isocitrate lyase) (P9WKK7 whole entry): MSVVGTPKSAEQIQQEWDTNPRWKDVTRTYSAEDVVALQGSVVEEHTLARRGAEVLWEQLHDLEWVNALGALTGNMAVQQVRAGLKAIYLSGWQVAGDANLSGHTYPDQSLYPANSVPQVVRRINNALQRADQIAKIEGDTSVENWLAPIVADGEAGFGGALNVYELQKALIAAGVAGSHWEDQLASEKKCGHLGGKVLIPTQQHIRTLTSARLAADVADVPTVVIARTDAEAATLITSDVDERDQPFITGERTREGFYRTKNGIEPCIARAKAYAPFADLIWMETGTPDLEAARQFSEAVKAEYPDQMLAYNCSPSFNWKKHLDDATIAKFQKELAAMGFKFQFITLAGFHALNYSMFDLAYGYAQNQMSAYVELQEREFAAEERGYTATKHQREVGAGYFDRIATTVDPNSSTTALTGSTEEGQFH
# [1] = tested on: O=C(O)CC(C(=O)O)C(O)C(=O)O; assay: purified protein, by the assay type; settings: other: Lineweaver-Burke plot and Cornish-Bowden direct linear plot
# Sequence of icl2 (isocitrate lyase) (Q8VJU4 whole entry): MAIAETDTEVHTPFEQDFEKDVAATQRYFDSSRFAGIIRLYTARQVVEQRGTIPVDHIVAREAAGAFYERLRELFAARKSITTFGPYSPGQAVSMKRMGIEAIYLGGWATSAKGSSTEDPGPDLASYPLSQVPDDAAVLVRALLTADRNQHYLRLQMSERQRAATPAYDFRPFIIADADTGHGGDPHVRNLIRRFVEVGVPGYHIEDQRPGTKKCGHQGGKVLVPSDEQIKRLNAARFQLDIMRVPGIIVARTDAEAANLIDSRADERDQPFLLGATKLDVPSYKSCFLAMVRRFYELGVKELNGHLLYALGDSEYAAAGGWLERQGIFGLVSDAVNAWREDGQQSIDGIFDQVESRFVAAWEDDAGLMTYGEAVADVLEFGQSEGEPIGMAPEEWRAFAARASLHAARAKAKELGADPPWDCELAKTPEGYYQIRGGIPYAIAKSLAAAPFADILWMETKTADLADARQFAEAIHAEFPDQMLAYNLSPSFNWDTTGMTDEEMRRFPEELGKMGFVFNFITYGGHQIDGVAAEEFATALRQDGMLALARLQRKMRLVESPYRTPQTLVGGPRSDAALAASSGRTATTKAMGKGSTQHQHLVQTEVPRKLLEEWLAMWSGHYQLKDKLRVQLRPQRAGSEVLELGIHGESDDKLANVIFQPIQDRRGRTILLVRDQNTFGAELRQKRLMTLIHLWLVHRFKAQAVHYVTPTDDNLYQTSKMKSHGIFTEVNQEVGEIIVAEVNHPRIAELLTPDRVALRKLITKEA
# Sequence of isocitrate lyase (icl) (P0A9G6 whole entry): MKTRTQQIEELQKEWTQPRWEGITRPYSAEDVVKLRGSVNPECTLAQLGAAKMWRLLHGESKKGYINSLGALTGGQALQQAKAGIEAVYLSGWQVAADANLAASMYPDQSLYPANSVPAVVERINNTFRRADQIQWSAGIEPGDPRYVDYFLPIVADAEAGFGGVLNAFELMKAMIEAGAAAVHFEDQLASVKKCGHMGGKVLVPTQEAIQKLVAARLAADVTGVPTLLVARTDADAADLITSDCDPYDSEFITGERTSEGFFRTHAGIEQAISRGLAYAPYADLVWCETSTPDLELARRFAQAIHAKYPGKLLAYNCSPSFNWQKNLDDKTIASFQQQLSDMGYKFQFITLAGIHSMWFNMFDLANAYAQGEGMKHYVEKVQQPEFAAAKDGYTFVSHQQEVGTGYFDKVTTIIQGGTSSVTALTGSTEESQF
Compound,Km (icl2 (isocitrate lyase)),Km (isocitrate lyase (icl)),Km (icl1 (isocitrate lyase)),Km [1]
O=C(O)CC(C(=O)O)C(O)C(=O)O (stereo not shown) [isocitrate],~1500 µM,604 µM,~115 µM,
"icd1 (isocitrate dehydrogenase, Rv 3339c) (Mycobacterium tuberculosis H37Rv)",,,,12 µM
